The structures appear in SMILES notation. In brackets after ≈: the same amount, converted by molar mass.

Assay [1] in a line: Selectivity ratio of IC50 for human THP1 cells to MIC for isoniazid-, rifampin-, amikacin-, OLF-resistant Mycobacterium tuberculosis isolate J. The class given is functional, THP-1.
The nature of assay [2]: Selectivity ratio of IC50 for human THP1 cells to MIC for isoniazid-, rifampin-,kanamycin-,OLF-resistant Mycobacterium tuberculosis isolate I. The class given is functional, THP-1.
Assay [3] in a line: Selectivity ratio of IC50 for human THP1 cells to MIC for isoniazid-, rifampin-resistant Mycobacterium tuberculosis isolate D. The format is functional, THP-1.
For assay [4], the system named is Mycobacterium tuberculosis. The assay can be described thus: Antituberculosis activity against isoniazid-, rifampin-,ethambutol-resistant Mycobacterium tuberculosis isolate F. The format is functional.
The nature of assay [5]: Selectivity ratio of IC50 for human THP1 cells to MIC for isoniazid-, rifampin-,ethambutol-resistant Mycobacterium tuberculosis isolate G. The class given is functional, THP-1.
Assay [6] can be described thus: Selectivity ratio of IC50 for human THP1 cells to MIC for isoniazid-, rifampin-,streptomycin-resistant Mycobacterium tuberculosis isolate E. The class given is functional, THP-1.
A short description of assay [7]: Selectivity ratio of IC50 for human THP1 cells to MIC for INH-resistant Mycobacterium tuberculosis isolate B. The class given is functional, THP-1.
Assay [8] can be described thus: Selectivity ratio of IC50 for human THP1 cells to MIC for INH-resistant Mycobacterium tuberculosis isolate C. The class given is functional, THP-1.
Assay [9] concerns Mycobacterium tuberculosis. As to the kind of experiment: Antituberculosis activity against isoniazid-, rifampin-,kanamycin-,OLF-resistant Mycobacterium tuberculosis isolate I. The format is functional.
Assay [10] concerns Mycobacterium tuberculosis. The assay can be described thus: Antituberculosis activity against isoniazid-resistant Mycobacterium tuberculosis isolate C. The format is functional.
Assay [11] relates to Mycobacterium tuberculosis. As to the kind of experiment: Antituberculosis activity against isoniazid-, rifampin-, amikacin-, OLF-resistant Mycobacterium tuberculosis isolate J. The class given is functional.
Assay [12] in a line: Selectivity ratio of IC50 for human THP1 cells to MIC for isoniazid-, rifampin-,ethambutol-resistant Mycobacterium tuberculosis isolate F. The class given is functional, THP-1.
In assay [13] the test system is Mycobacterium tuberculosis. The assay can be described thus: Antituberculosis activity against isoniazid-, rifampin-, amikacin-, OLF-resistant Mycobacterium tuberculosis isolate H. The format is functional.
In assay [14] the test system is Mycobacterium tuberculosis. As to the kind of experiment: Antituberculosis activity against isoniazid-resistant Mycobacterium tuberculosis isolate B. The class given is functional.
Assay [15] is described as follows: Selectivity ratio of IC50 for human THP1 cells to MIC for isoniazid-, rifampin-, amikacin-, OLF-resistant Mycobacterium tuberculosis isolate H. The format is functional, THP-1.
The subject of assay [16] is Mycobacterium tuberculosis. As to the kind of experiment: Antituberculosis activity against isoniazid-, rifampin-,ethambutol-resistant Mycobacterium tuberculosis isolate G. The format is functional.
The subject of assay [17] is Mycobacterium tuberculosis. The assay can be described thus: Antituberculosis activity against isoniazid-, rifampin-resistant Mycobacterium tuberculosis isolate D. The format is functional.
The subject of assay [18] is Mycobacterium tuberculosis. The assay can be described thus: Antituberculosis activity against isoniazid-, rifampin-,streptomycin-resistant Mycobacterium tuberculosis isolate E. The class given is functional.

By MIC is commonly meant the lowest concentration that inhibits growth of the organism. Read a high MIC as weaker potency. For `COc1ccnc(NC(=O)NS(=O)(=O)c2cc(NC(=O)CCl)ccc2Cl)n1`, the Selectivity ratio in assay [1], in assay [2], in [3], in [5], in [6] and in assay [7] was 10 each time. For the same molecule, the Selectivity ratio in [8], in assay [12] and in [15] was 10 throughout. The MIC in assay [4], in [9], in [10], in [11], in assay [13] and in assay [14] was 10 µg/mL (≈ 23 µM) each time. Further, the MIC in assay [16], in [17] and in assay [18] was 10 µg/mL (≈ 23 µM) in each case.
Take `Cc1ccnc(NC(=O)NS(=O)(=O)c2cc(NC(=O)CCl)ccc2Cl)n1`: the Selectivity ratio in assay [1], in assay [2], in assay [3], in assay [5], in assay [6] and in assay [7] was 10 each time. Besides, the Selectivity ratio in [8], in assay [12] and in assay [15] was 10 in each case. The MIC in assay [4], in [9], in [10], in [11], in assay [13] and in [14] was 10 µg/mL (≈ 23.9 µM) in each case. The MIC in assay [16], in assay [17] and in [18] was 10 µg/mL (≈ 23.9 µM) in each case.
